Patent publication US20070142392A1, “Uses of rifamycins” (ActivBiotics, Inc., priority 2005, published 2007)
≈ marks a conversion by molar mass, not a printed value.

Columns and labels:
Format in all cases: cell-based
E. faecalis = assay: MIC values, E. faecalis (Tables 1-4)
H. flu = test system: H. flu
S. pneumo. = assay: MIC values, S. pneumo. (Tables 1-4)
E. coli = assay: MIC values, E. coli (Tables 1-4)
S. aureus = assay: MIC values, S. aureus (Tables 1-4)

| SMILES | MIC E. faecalis (E. faecalis) [µg/mL] | MIC H. flu (H. flu) [µg/mL] | MIC S. pneumo. (S. pneumo.) [µg/mL] | MIC E. coli (E. coli) [µg/mL] | MIC S. aureus (S. aureus) [µg/mL] |
| --- | --- | --- | --- | --- | --- |
| CCOC(=O)C1CCN(c2cc(O)c3nc4c5c6c7c(C)c(O)c5c(=O)c(c-4oc3c2)NC(=O)/C(C)=C\C=C\[C@H](C)[C@H](O)[C@@H](C)[C@@H](O)[C@@H](C)[C@H](O)[C@H](C)[C@@H](OC)/C=C/O[C@@](C)(O7)C6=O)CC1 [Compound 113] | 0.5 (≈ 0.547 µM) | 0.12 (≈ 0.131 µM) | 0.008 (≈ 0.00875 µM) | >8 | 0.004 (≈ 0.00438 µM) |
| CO[C@H]1/C=C/O[C@@]2(C)Oc3c(C)c(O)c4c(=O)c(c5oc6cc(N7CCC(F)CC7)ccc6nc-5c4c3C2=O)NC(=O)/C(C)=C\C=C\[C@H](C)[C@H](O)[C@@H](C)[C@@H](O)[C@@H](C)[C@H](O)[C@@H]1C [Compound 114] | 0.5 (≈ 0.592 µM) | 0.12 (≈ 0.142 µM) | 0.008 (≈ 0.00948 µM) | 8 (≈ 9.48 µM) | 0.03 (≈ 0.0355 µM) |
| CO[C@H]1/C=C/O[C@@]2(C)Oc3c(C)c(O)c4c(=O)c(c5oc6cc(N7CCC(F)(F)CC7)ccc6nc-5c4c3C2=O)NC(=O)/C(C)=C\C=C\[C@H](C)[C@H](O)[C@@H](C)[C@@H](O)[C@@H](C)[C@H](O)[C@@H]1C [Compound 115] | 1 (≈ 1.16 µM) | 0.25 (≈ 0.29 µM) | 0.015 (≈ 0.0174 µM) | >8 | 0.03 (≈ 0.0348 µM) |
| CO[C@H]1/C=C/O[C@@]2(C)Oc3c(C)c(O)c4c(=O)c(c5oc6cc(N7CCCC7)c(C7CCCCC7)cc6nc-5c4c3C2=O)NC(=O)/C(C)=C\C=C\[C@H](C)[C@H](O)[C@@H](C)[C@@H](O)[C@@H](C)[C@H](O)[C@@H]1C [Compound 118] | >8 | 8 (≈ 8.95 µM) | 0.25 (≈ 0.28 µM) | >8 | 2 (≈ 2.24 µM) |
| CO[C@H]1/C=C/O[C@@]2(C)Oc3c(C)c(O)c4c(=O)c(c5oc6c(C)c(N7CCCC7)cc(C)c6nc-5c4c3C2=O)NC(=O)/C(C)=C\C=C\[C@H](C)[C@H](O)[C@@H](C)[C@@H](O)[C@@H](C)[C@H](O)[C@@H]1C [Compound 119] | 2 (≈ 2.38 µM) | 2 (≈ 2.38 µM) | 0.5 (≈ 0.595 µM) | >8 | 0.5 (≈ 0.595 µM) |
| CO[C@H]1/C=C/O[C@@]2(C)Oc3c(C)c(O)c4c(=O)c(c5oc6cc(N7CCCC7)c(C)c(C)c6nc-5c4c3C2=O)NC(=O)/C(C)=C\C=C\[C@H](C)[C@H](O)[C@@H](C)[C@@H](O)[C@@H](C)[C@H](O)[C@@H]1C [Compound 120] | 4 (≈ 4.76 µM) | 1 (≈ 1.19 µM) | 0.06 (≈ 0.0714 µM) | >8 | 0.5 (≈ 0.595 µM) |
| COc1c(N2CCCC2)cc(C)c2nc3c4c5c6c(C)c(O)c4c(=O)c(c-3oc12)NC(=O)/C(C)=C\C=C\[C@H](C)[C@H](O)[C@@H](C)[C@@H](O)[C@@H](C)[C@H](O)[C@H](C)[C@@H](OC)/C=C/O[C@@](C)(O6)C5=O [Compound 121] | 2 (≈ 2.34 µM) | 0.12 (≈ 0.14 µM) | 0.03 (≈ 0.035 µM) | 8 (≈ 9.35 µM) | 0.06 (≈ 0.0701 µM) |
| CO[C@H]1/C=C/O[C@@]2(C)Oc3c(C)c(O)c4c(=O)c(c5oc6cc(N7CCCC7)c(F)cc6nc-5c4c3C2=O)NC(=O)/C(C)=C\C=C\[C@H](C)[C@H](O)[C@@H](C)[C@@H](O)[C@@H](C)[C@H](O)[C@@H]1C [Compound 123] | 1 (≈ 1.2 µM) | 0.12 (≈ 0.145 µM) | 0.06 (≈ 0.0723 µM) | 8 (≈ 9.64 µM) | 0.03 (≈ 0.0361 µM) |
| CO[C@H]1/C=C/O[C@@]2(C)Oc3c(C)c(O)c4c(=O)c(c5oc6cc(N7CCCN(C)CC7)cc(O)c6nc-5c4c3C2=O)NC(=O)/C(C)=C\C=C\[C@H](C)[C@H](O)[C@@H](C)[C@@H](O)[C@@H](C)[C@H](O)[C@@H]1C [Compound 124] | 0.03 (≈ 0.0344 µM) | 0.25 (≈ 0.287 µM) | 0.00012 (≈ 0.000138 µM) | 4 (≈ 4.59 µM) | 0.004 (≈ 0.00459 µM) |
| CO[C@H]1/C=C/O[C@@]2(C)Oc3c(C)c(O)c4c(=O)c(c5sc6cc(N7CCCN(C)CC7)ccc6nc-5c4c3C2=O)NC(=O)/C(C)=C\C=C\[C@H](C)[C@H](O)[C@@H](C)[C@@H](O)[C@@H](C)[C@H](O)[C@@H]1C [Compound 125] | 0.25 (≈ 0.287 µM) | 0.12 (≈ 0.138 µM) | 0.00025 (≈ 0.000287 µM) | 2 (≈ 2.3 µM) | 0.002 (≈ 0.0023 µM) |
| CO[C@H]1/C=C/O[C@@]2(C)Oc3c(C)c(O)c4c(=O)c(c5oc6c(C)c(N7CCC7)cc(C)c6nc-5c4c3C2=O)NC(=O)/C(C)=C\C=C\[C@H](C)[C@H](O)[C@@H](C)[C@@H](O)[C@@H](C)[C@H](O)[C@@H]1C [Compound 126] | 1 (≈ 1.21 µM) | 0.25 (≈ 0.303 µM) | 0.004 (≈ 0.00484 µM) | 8 (≈ 9.69 µM) | 0.03 (≈ 0.0363 µM) |
| CO[C@H]1/C=C/O[C@@]2(C)Oc3c(C)c(O)c4c(=O)c(c5oc6cc(N(C)CC(C)C)cc(O)c6nc-5c4c3C2=O)NC(=O)/C(C)=C\C=C\[C@H](C)[C@H](O)[C@@H](C)[C@@H](O)[C@@H](C)[C@H](O)[C@@H]1C [Compound 128] | 0.5 (≈ 0.592 µM) | 0.5 (≈ 0.592 µM) | 0.002 (≈ 0.00237 µM) | >8 | 0.015 (≈ 0.0178 µM) |
| CO[C@H]1/C=C/O[C@@]2(C)Oc3c(C)c(O)c4c(=O)c(c5oc6cc(N(C)C7CCN(C)CC7)cc(O)c6nc-5c4c3C2=O)NC(=O)/C(C)=C\C=C\[C@H](C)[C@H](O)[C@@H](C)[C@@H](O)[C@@H](C)[C@H](O)[C@@H]1C [Compound 129] | 0.5 (≈ 0.565 µM) | 0.25 (≈ 0.282 µM) | 0.00025 (≈ 0.000282 µM) | 4 (≈ 4.52 µM) | 0.004 (≈ 0.00452 µM) |
| CO[C@H]1/C=C/O[C@@]2(C)Oc3c(C)c(O)c4c(=O)c(c5oc6cc(N(C)CCC#N)ccc6nc-5c4c3C2=O)NC(=O)/C(C)=C\C=C\[C@H](C)[C@H](O)[C@@H](C)[C@@H](O)[C@@H](C)[C@H](O)[C@@H]1C [Compound 130] | 0.5 (≈ 0.606 µM) | 0.12 (≈ 0.145 µM) | 0.008 (≈ 0.0097 µM) | 8 (≈ 9.7 µM) | 0.06 (≈ 0.0727 µM) |
| CO[C@H]1/C=C/O[C@@]2(C)Oc3c(C)c(O)c4c(=O)c(c5oc6cc(N7CCOCC7)cc(O)c6nc-5c4c3C2=O)NC(=O)/C(C)=C\C=C\[C@H](C)[C@H](O)[C@@H](C)[C@@H](O)[C@@H](C)[C@H](O)[C@@H]1C [Compound 131] | 0.06 (≈ 0.0711 µM) | 0.12 (≈ 0.142 µM) | 0.00025 (≈ 0.000296 µM) | >8 | 0.004 (≈ 0.00474 µM) |
| CO[C@H]1/C=C/O[C@@]2(C)Oc3c(C)c(O)c4c(=O)c(c5sc6cc(N7CCOCC7)ccc6nc-5c4c3C2=O)NC(=O)/C(C)=C\C=C\[C@H](C)[C@H](O)[C@@H](C)[C@@H](O)[C@@H](C)[C@H](O)[C@@H]1C [Compound 132] | 0.5 (≈ 0.592 µM) | 0.06 (≈ 0.0711 µM) | 0.001 (≈ 0.00118 µM) | 4 (≈ 4.74 µM) | 0.015 (≈ 0.0178 µM) |
| CO[C@H]1/C=C/O[C@@]2(C)Oc3c(C)c(O)c4c(=O)c(c5n(C)c6ccccc6nc-5c4c3C2=O)NC(=O)/C(C)=C\C=C\[C@H](C)[C@H](O)[C@@H](C)[C@@H](O)[C@@H](C)[C@H](O)[C@@H]1C [Compound 134] | 2 (≈ 2.65 µM) | 2 (≈ 2.65 µM) | 0.5 (≈ 0.661 µM) | 8 (≈ 10.6 µM) | 0.5 (≈ 0.661 µM) |
| CO[C@H]1/C=C/O[C@@]2(C)Oc3c(C)c(O)c4c(=O)c(c5oc6cccc(O)c6nc-5c4c3C2=O)NC(=O)/C(C)=C\C=C\[C@H](C)[C@H](O)[C@@H](C)[C@@H](O)[C@@H](C)[C@H](O)[C@@H]1C [Compound 136] | 0.12 (≈ 0.158 µM) | 0.25 (≈ 0.329 µM) | 0.002 (≈ 0.00264 µM) | 8 (≈ 10.5 µM) | 0.004 (≈ 0.00527 µM) |
| CO[C@H]1/C=C/O[C@@]2(C)Oc3c(C)c(O)c4c(=O)c(c5oc6ccc(F)cc6nc-5c4c3C2=O)NC(=O)/C(C)=C\C=C\[C@H](C)[C@H](O)[C@@H](C)[C@@H](O)[C@@H](C)[C@H](O)[C@@H]1C [Compound 138] | 0.5 (≈ 0.657 µM) | 0.5 (≈ 0.657 µM) | 0.06 (≈ 0.0789 µM) | >8 | 0.03 (≈ 0.0394 µM) |
| CO[C@H]1/C=C/O[C@@]2(C)Oc3c(C)c(O)c4c(=O)c(c5oc6cc(F)ccc6nc-5c4c3C2=O)NC(=O)/C(C)=C\C=C\[C@H](C)[C@H](O)[C@@H](C)[C@@H](O)[C@@H](C)[C@H](O)[C@@H]1C [Compound 139] | 0.5 (≈ 0.657 µM) | 0.5 (≈ 0.657 µM) | 0.03 (≈ 0.0394 µM) | >8 | 0.03 (≈ 0.0394 µM) |
| COC1C=COC2(C)Oc3c(C)c(O)c4c(=O)c(c5oc6cc(N7CC8CCCNC8C7)cc(O)c6nc-5c4c3C2=O)NC(=O)C(C)=CC=CC(C)C(O)C(C)C(O)C(C)C(OC(C)=O)C1C (stereo not shown) [Compound 141] | 0.5 (≈ 0.541 µM) | 2 (≈ 2.16 µM) | 0.00025 (≈ 0.00027 µM) | 8 (≈ 8.65 µM) | 0.015 (≈ 0.0162 µM) |
| COC1C=COC2(C)Oc3c(C)c(O)c4c(=O)c(c5oc6cc(N7CC8CCCNC8C7)cc(O)c6nc-5c4c3C2=O)NC(=O)C(C)=CC=CC(C)C(O)C(C)C(O)C(C)C(O)C1C (stereo not shown) [Compound 142] | 4 (≈ 4.53 µM) | 4 (≈ 4.53 µM) | 0.004 (≈ 0.00453 µM) | >8 | 0.12 (≈ 0.136 µM) |
| COC1C=COC2(C)Oc3c(C)c(O)c4c(=O)c(c5oc6cc(N7CC8CCCNC8C7)cc(O)c6nc-5c4c3C2=O)NC(=O)C(C)=CC=CC(C)C(O)C(C)C(O)C(C)C(OC(C)=O)C1C (stereo not shown) [Compound 143] | 0.12 (≈ 0.13 µM) | 0.25 (≈ 0.27 µM) | 0.00025 (≈ 0.00027 µM) | 8 (≈ 8.65 µM) | 0.004 (≈ 0.00432 µM) |
